# In US7556807B2, “Signal peptides, nucleic acid molecules and methods for treatment of caries” (priority 2001, dated 2009):
# Key:
# [1] = test system: S. mutans wild-type UA159; assay: S. mutans biofilms formed on polystyrene microtiter plates (b), SDM-glucose, safranin (first study); type: cell-based, Streptococcus mutans; conditions: 5 μg/ml of peptide analog; ↓ = reduced biomass compared to biofilm grown in presence of wild-type CSP
# Method: Biofilms were developed in 96-well polystyrene microtiter plates. […] Wells without cells were used as blank controls. […] After the incubation, the planktonic cells were carefully removed and the plates were air dried overnight. The plates were then stained with 0.01% (wt/vol) safranin for 10 min, rinsed with sterile distilled water and air dried. Biofilms were quantified by measuring the absorbance of stained biofilms at 490 nm with a microplate reader (model 3550; Bio-Rad Laboratories, Richmond, Calif.).
# [2] = test system: S. mutans wild-type UA159; assay: S. mutans acid resistance assay (growth in THYE at pH 7.5 and pH 5.5); type: cell-based, Streptococcus mutans; conditions: 5 μg/ml of peptide analog; for Growth (pH 7.5): THYE pH 7.5; for Acid resistance (pH 5.5): growth in THYE pH 5.5
# Method: The effect of peptides on acid tolerance was evaluated by assessment of growth in THYE at pH 7.5 and pH 5.5. Overnight S. mutans wild-type UA159 cells were diluted (1:20) with prewarmed THYE broth and incubated at 37° C. in air with 5% CO2 until an OD600 of approximately 0.4 was reached. A 20-fold dilution was made into 400 μl of either THYE pH 7.5 or THYE pH 5.5 broth containing different concentrations (0, 0.1, 0.5, 2, and 5 μg per ml) of peptide analogs and added in the individual wells of a 100-well Bioscreen C plate in triplicate. Wells without cells were used as blank controls. A Bioscreen microbiology reader (Labsystems, Helsinki, Finland) was employed to continuously grow cells and measure cell growth for 16 h at 37° C. Measurements were taken every 20 min with shaking to prevent cell aggregation.
# [3] = test system: S. mutans comD null mutant; assay: Genetic transformation of S. mutans comD null mutant in presence of H1; type: cell-based, Streptococcus mutans; conditions: different concentrations of H1
# Excerpt: An S. mutans UA159 comD null mutant was constructed by a PCR-based deletion strategy involving restriction-ligation and allelic replacement as described previously (Lau et al., 2002). The primers used to construct and confirm the S. mutans comD deletion mutant were P1-HK13 (5′-[…]-3′; SEQ ID NO:52), P2-HK13 (5′-[…]-3′; SEQ ID NO:53), P3-HK13 (5′-[…]-3′; SEQ ID NO:54), P4-HK13 (5′-AGATTATCATTGGC GGAAGCG-3′; SEQ ID NO:55), Erm-19 (5′-[…]-3′; SEQ ID NO:56), and Erm-20 (5′-[…] TAGAAT-3′; SEQ ID NO:57).
# To determine if the peptide analogs had any impact on the development of genetic competence, S. mutans UA159 wild-type cells were assayed for genetic transformation. Overnight cultures of S. mutans UA159 were diluted (1:20) with prewarmed THYE broth and incubated at 37° C. in air with 5% CO2 until an optical density (OD) of approximately 0.1 at 600 nm was reached. The culture was then divided into six aliquots containing 1 μg/ml of plasmid pDL289 and different concentrations (0, 0.1, 0.5, 2, and 5 μg per ml) of peptide analogs. […] Total recipient cells were counted by spreading serial dilutions on THYE agar plates without antibiotic. Transformation efficiency was expressed as the percentage of kanamycin resistant transformants over the total number of recipient cells.
# [4] = test system: S. mutans comC null mutant; conditions: exogenous addition of synthetic CSP; Li et al., 2002; cited from earlier work
# [5] = test system: S. mutans comC deficient cells; assay: Acid resistance tolerance of S. mutans comC deficient cells with added synthetic CSP (FIG. 12); type: cell-based, Streptococcus mutans; conditions: synthetic CSP added to culture of comC mutant; compared to parent strain NG8
# Method: The ability of CSP [SEQ ID NO:11] to promote acid resistance tolerance is determined by measuring the cell survival rate of S. mutans when exposed to acidic pH. In one example, S. mutans are first grown in batch culture to assay acid tolerance response in ‘standard’ log- and stationary-phase cells by using a modification of methods described previously by Svensäter et al. Oral Microbiol. Immunol., 12:266-73. Mid-log-phase cells are obtained by transferring one volume of overnight culture into nine volumes (1:10) of fresh TYG medium (pH 7.5) and incubated at 37° C. with 5% CO2 for 2 hours. These cells are then collected by centrifugation at 8,000×g for 10 min and resuspended in 2 ml of fresh TYG (pH 5.5) at various cell densities as determined by O.D600. The cells are induced for acid adaptation by incubation at pH 5.5 for 2 h at 37° C. with 5% CO2. The adapted log-phase cells are then exposed to the killing pH. Killing pH is pre-determined by incubating unadapted, mid-log phase cells in TYG medium at pH values from 6.0 to 2.0. Stationary-phase cells are prepared by re-suspending late-log phase cells in TY medium (tryptone-yeast extract) without glucose. […] Adaptation of both log- and stationary-phase cells to acidic pH is determined by measuring the ability of bacterial cells to survive a killing pH for 3 h. […]
Substance,Bioflim formation (SDM-glucose) [1],Growth (pH 7.5) [2],Acid resistance (pH 5.5) [2],Effect of H1 on genetic competence in comD null mutant [3],Biofilm phenotype of comC defective mutant [4],Survival of low pH challenge by comC mutant [5]
"H1: S. mutans CSP analog, 4th residue removed from C′ (SGSLSTFFRLFNVSFTQALGK; D2 peptide analog)",no effect,no effect,significant decrease in cell growth,ComD-dependent process,,
"SGSLSTFFRLFNRSFTQALGK (MKKTLSLKNDFKEIKTDELEIIIGGSGSLSTFFRLFNRSFTQALGK; Streptococcus mutans) [CSP, reference compound]",no effect,↓growth,growth,,restores the wild-type phenotype,restored the ability of the mutant to survive a low pH challenge
